Entries after “also recorded” stand apart in the source; their conditions may differ.
Experiments:
Format in all cases: cell-based
[1] = system: human progenitor cells; experiment: IL-4/IFN-gamma induced apoptosis, Annexin V staining
Method: FIG. 6. The Effects of Pentosan Polysulfate (PPS) on Human progenitor cells treated with apoptotic agents. Human progenitor cells were plated in serum-free media supplemented with PPS at the indicated concentrations. Progenitor cell apoptosis was induced by the addition of a combination of 30 ng/ml IL-4 plus 30,000 U/ml IFN-gamma. Following 5 days culture, cells were harvested by trypsinisation and viabilities assessed by Annexin V staining.
Human progenitor cells were plated in serum-free media supplemented with PPS at concentrations of 0, 1, 2, 5 and 10 micrograms/mL. Progenitor cell apoptosis was induced by the addition of a combination of 30 ng/ml IL-4 30,000 U/ml IFN gamma. Following 5 days culture, cells were harvested by trypsinisation and viabilities assessed by Annexin V staining as previously described (Kortesidis A, A Zannettino, S Isenmann, S Shi, T Lapidot and S Gronthos. (2005). Stromal-derived factor-1 promotes the growth, survival, and development of human bone marrow stromal stem cells. Blood 105:3793-3801).
The experiment was undertaken in a 96 well plate containing 50,000 progenitor cells/well.

[2] = system: Normal Human MSCs; experiment: Freeze/thaw viability of MSCs cryopreserved with PPS, trypan blue cell counts
Method: FIG. 1. The Effects of Pentosan Polysulfate (PPS) on Normal Human MSCs Freeze/Thaw Viabilities. MSCs were rapidly thawed in a 37° C. water bath and washed twice with HHF (HBSS containing 5% (v/v) Foetal Calf Serum). The cells were subsequently seeded into multiple T-75 flasks at 8,000 cells/cm^2. The cells were grown until 70-80% confluent, trypsinised and cryopreserved at cell concentrations of 50×10^6/ml in Profreeze®/7.5% DMSO supplemented with PPS at the indicated concentrations. Ampoules were retrieved from liquid nitrogen storage and rapidly thawed, gently mixed and 10 ul samples removed at time=0, 30, 60, 90 and 120 minutes. To each cell sample, 290 ul of trypan blue was added and cell counts/viability testing performed.
Cells were harvested and resuspended in cold serum free culture medium at 5.0 to 20.0×10^6 cells/ml. An equal volume of chilled complete Profreeze®-CDM medium was added to the chilled cell suspension containing 0, 10, 20, 50 and 100 micrograms/mL of PPS. The resulting final DMSO concentration was 7.5%, PPS concentration was 0, 5, 10, 25 and 50 micrograms/mL and the final cell concentration was approximately 2.5 to 10×10^6 cells/ml. The cell mixture was aliquoted into cryopreservation ampoules (Nunc, Intermed, Denmark) and cryopreserved in a C156 Freezing Container (Thermo Scientific, Melbourne, 21 Australia) at −80° C. for a −1° C./minute controlled cooling rate. The ampoules were then transferred to liquid nitrogen storage (−196° C.).
Cyropreserved cells were rapidly thawed for a minute in a 37° C. water bath and transferred to a 10 mL polypropylene tube. Approximately 3 mL of appropriate media was added dropwise to the cells with constant mixing, and made up to a final volume of 10 mL. Cells were pelleted by centrifugation at 400×g, 4° C. for 5 minutes and the supernatant aspirated. To ensure removal of residual DMSO, cells were washed in medium and centrifuged as above. Cells were resuspended in final volume of 10 mL and seeded in a 75 cm^2 flask prior to incubation in a humidified incubator at 37° C. in the presence of 5% CO2.
Aliquots of single-cell suspensions obtained after thawing progenitor cells from the PPS containing cryopreserved vials were diluted in an equal volume of 0.4% (w/v) trypan blue in phosphate buffered saline (PBS). The cell counts were determined using a haemocytometer (Neubauer Improved, Assistant, Germany) and a light microscope (Olympus CKX41, Japan).

[3] = system: human progenitor cell; experiment: Viability after cryopreservation and thawing, MTT assay; conditions: FIG. 3
Method: FIG. 3. Effects of different concentrations of Pentosan Polysulfate (PPS) on progenitor cell viability following cryopreservation in liquid nitrogen and rapidly thawing as described in FIG. 1. Cell viability was determined using the mitochondrial dehydrogenase MTT assay. Data shown=Means±SD *=p<0.05 relative to control values
Murine Progenitor cells (cell lines C3H10T1/2 or ATDC5) purchased from RIKEN Cell Bank (Tsukuba, Japan) or human immunoselected Stro-1+ progenitor cells (Mesoblast Ltd, Melbourne, Australia) were seeded at a various cell densities over the range of 1.68×10^5-1.0×10^6 cells into 2 mL screw-capped centrifuge tubes containing in DMEM+10% FBS. In separate tubes a stock solution containing 2× the required concentrations of PPS dissolved in DMEM+20% FBS and 15% DMSO were prepared. These stock solutions were added to the cell cultures such that the final concentration of PPS was half that of the stock concentration and of FBS was 10% and DMSO was […]. Over several independent experiments the final concentrations of PPS in the final solutions ranged from 0.0-100 ug/ml (see figures for details). All concentrations of PPS used were examined in triplicated. Cells and the cryopreservation solutions containing the PPS were mixed gently for 5 mins and stored in liquid nitrogen. […] 90 ul×3 from each tube were transferred to a 96-well plate and the absorbance at 540 nm determined. […]

pentosan polysulfate [PPS]
PPS concentration with best results on apoptosis ([1]; FIG. 6): 10 µg/mL
reduction in IFN-gamma/IL-4-induced apoptosis (Annexin V positive cells) ([1]; PPS in excess 1 ug/ml, 5 days culture, FIG. 6): two-fold reduction
cell apoptosis ([1]; all concentrations of PPS (1, 2, 5, 10 micrograms/mL)): reduced
reduction of apoptosis ([1]; concentrations above 1 microgram/mL, incubated with IL-4 and IFN-gamma, FIG. 6): about 50%
cell viability after cryopreservation and thawing ([2]; 5 μg/ml PPS): beneficial effect on viability at 60 minutes
cell viability after cryopreservation and thawing ([2]; 10 μg/ml PPS): beneficial effect at time point 0 and then at 60 and 90 minutes
cell viability after cryopreservation and thawing ([2]; 25 μg/ml PPS, all time points instead of 30 minutes): either enhanced the viability or did not adversely affect the viability
cell viability after cryopreservation and thawing ([2]; 50 μg/ml PPS, with the exception of 30 minutes): enhanced the viability of the progenitor cells at all time points
cell viability after cryopreservation and thawing ([2]; Profreeze/7.5% DMSO with PPS 5-50 μg/ml, 0-120 min after thawing, FIG. 1): did not adversely affect cell viability; also recorded: did not have an adverse effect on the cryopreservation; also recorded: did not have an adverse effect and may enhance the cryopreservation of progenitor cells
cell viability after cryopreservation and thawing ([2]; Profreeze/7.5% DMSO with PPS 5-50 μg/ml, 0-120 min after thawing, FIG. 1, listed as polysulfated polysaccharides): no detrimental effect on their viability
cell viability after cryopreservation and thawing (MTT) ([3]; 168,000 cells, particularly at 1 and 2.5 μg/ml PPS): improved the viability of the cells
cell viability after cryopreservation and thawing (MTT) ([3]; 350,000 cells): not adversely affected

From patent publication US9888679B2, “Protection of progenitor cells and regulation of their differentiation” (Proteobioactives Pty Ltd, priority 2007, dated 2018)
